Source: article PMC4814829, “Design, synthesis, crystallization and biological evaluation of new symmetrical biscationic compounds as selective inhibitors of human Choline Kinase α1 (ChoKα1)” (Scientific Reports, 2016)
Where two headings read alike, the source gives them in different places.

Assays:
[1] = tested on: panel of nine different human tumor-cell lines; assay: Antiproliferative activity against the panel of nine human tumor-cell lines; type: cell-based; settings: for GI50: Homo sapiens, range or bound over all tested cell lines, read-out: GI50 across the tumor-cell line panel
Description: (§1) Human T-cell leukemia (Jurkat), human B-cell leukemia (RS 4,11) and human promyelocytic leukemia (HL-60) cells were grown in RPMI-1640 medium (Gibco, Milan, Italy). Breast adenocarcinoma (MCF-7 and MDA-MB-231), human non-small cell lung carcinoma (A549), human cervix carcinoma (HeLa), human prostate adenocarcinoma (PC-3), and human colon adenocarcinoma (HT-29) cells were grown in DMEM medium (Gibco, Milan, Italy). Both media were supplemented with 115 units/mL of penicillin G (Gibco, Milan, Italy), 115 μg/mL of streptomycin (Invitrogen, Milan, Italy) and 10% fetal bovine serum (Invitrogen, Milan, Italy). Stock solutions (10 mM) of the different compounds were obtained by dissolving them in DMSO. Individual wells of 96-well tissue-culture microtiter plates were inoculated with 100 μL of complete medium containing 8 × 10^3 cells. The plates were incubated at 37 °C in a humidified 5% CO2 incubator for 18 h prior to the experiments. After medium removal, 100 μL of fresh medium containing the test compound at different concentrations was added to each well and incubated at 37 °C for 72 h. The percentage of DMSO in the medium in no case exceeded 0.25%.

[2] = tested on: PC-3 cells; assay: Antiproliferative MTT assay; type: cell-based; settings: Homo sapiens, 72 h, mean ± SEM
Description: as §1

[3] = tested on: RS4,11 cells; assay: Antiproliferative MTT assay; type: cell-based; settings: Homo sapiens, 72 h, mean ± SEM
Description: as §1

[4] = tested on: A549 cells; assay: Antiproliferative MTT assay; type: cell-based; settings: Homo sapiens, 72 h, mean ± SEM
Description: as §1

[5] = tested on: HT-29 cells; assay: Antiproliferative MTT assay; type: cell-based; settings: Homo sapiens, 72 h, mean ± SEM
Description: as §1

[6] = tested on: Jurkat cells; assay: Antiproliferative MTT assay; type: cell-based; settings: Homo sapiens, 72 h, mean ± SEM
Description: as §1

[7] = tested on: HL-60 cells; assay: Antiproliferative MTT assay; type: cell-based; settings: Homo sapiens, 72 h, mean ± SEM
Description: as §1

[8] = tested on: MCF-7 cells; assay: Antiproliferative MTT assay; type: cell-based; settings: Homo sapiens, MCF7, 72 h, mean ± SEM
Description: as §1

[9] = tested on: HeLa cells; assay: Antiproliferative MTT assay; type: cell-based; settings: Homo sapiens, 72 h, mean ± SEM
Description: as §1

[10] = tested on: MDA-MB-231 cells; assay: Antiproliferative MTT assay; type: cell-based; settings: Homo sapiens, 72 h, mean ± SEM
Description: as §1

[11] = target: purified human ChoKα1 (Homo sapiens, UniProt P35790); assay: Determination of human choline kinase α1 activity ([methyl-14C]choline incorporation into phosphocholine); type: biochemical
Description: The effect of the different inhibitors on human choline kinase (ChoK) was assayed in ChoKα1 purified as previously described[32]. In each experiment DMSO-assays were always run in parallel as a control. DMSO in no case exceeded a concentration of 0.1% in order to avoid unspecific ChoK inhibition. ChoK activity was assayed by measuring the rate of incorporation of ^14C from [methyl-^14C]choline into phosphocholine both in the presence or absence of different inhibitor concentrations. Briefly, the final reaction mixture contained 100 mM Tris (pH 8.5), 10 mM MgCl2, and 10 mM ATP, and 20 ng of purified ChoKα1. […] The assay was stopped by immersing the reaction tubes in boiling water for 3 min. Aliquots of the reaction mixture were applied to the origin of Silica Gel plates in the presence of phosphocholine (0.1 mg) and choline (0.1 mg) as carriers. The chromatography was developed in methanol/0.6% NaCl/28% NH4OH in water (50:50:5, v/v/v) as solvent. Phosphocholine was visualized under exposure to iodine vapor and the corresponding spot was scraped and transferred to scintillation vials for measurement of radioactivity by a Beckman 6000-TA (Madrid, Spain) liquid-scintillation counter. At least three experiments were performed in all assays.

[12] = tested on: PBL (+Pha); assay: Antiproliferative assay in non-tumoral cells (MTT); type: cell-based; settings: Homo sapiens, non-tumoral cells stimulated with phytohematoagglutinin, 72 h, mean ± SEM
Description: (§2) Peripheral mononuclear cells (PBMC) from healthy donors were obtained by separation on Lymphoprep (Fresenius KABI Norge AS) gradient. After extensive washing, cells were resuspended (1 × 10^6 cells/mL) in RPMI-1640 with 10% fetal bovine serum and incubated overnight. For cytotoxicity evaluations in proliferating PBL cultures, non-adherent cells were resuspended at 5 × 10^5 cells/mL in growth medium, containing 2.5 μg/mL PHA (Irvine Scientific). Different concentrations of the test compounds were added, and viability was determined 72 h later by the MTT test. For cytotoxicity evaluations in resting PBL cultures, non-adherent cells were resuspended (5 × 10^5 cells/mL) and treated for 72 h with the test compounds, as described above.

[13] = tested on: PBL (resting); assay: Antiproliferative assay in non-tumoral cells (MTT); type: cell-based; settings: Homo sapiens, 72 h, mean ± SEM
Description: as §2

[14] = tested on: Human fibroblasts; assay: Antiproliferative assay in non-tumoral cells; type: cell-based; settings: Fibroblast, mean ± SEM
From the text: Human fibroblasts from foreskin were isolated as previously described[58] and maintained in DMEM medium with 10% fetal bovine serum added.

[15] = tested on: HUVEC; assay: Antiproliferative assay in non-tumoral cells; type: cell-based; settings: Homo sapiens, mean ± SEM
Description: Human Umbilical Vein Endothelial cells (HUVEC), were prepared from human umbilical-cord veins, as previously described. The adherent cells were maintained in M200 medium added by LSGS (low serum growth supplement), containing FBS, hydrocortisone, hEGF, bFGF, heparin, gentamycin/amphotericin (Life Technologies, Monza, Italy). Once confluent, the cells were detached by trypsin–EDTA solution and used in experiments from the first to sixth passages.

[16] = target: T1, human ChoKα1 (Homo sapiens, UniProt P35790); assay: Tryptophan fluorescence quenching; type: binding; settings: mean ± S.D. of at least three independent experiments; 25 °C, enzyme 1 μM; read-out: HsChoKα1 Kd
T1 construct: made in house
Description: All compounds were prepared in 100% DMSO. Their Kds against human ChoKα1 were measured by monitoring the quenching of tryptophan fluorescence. All experiments were performed in a Cary Eclipse spectrofluorometer (Varian) at 25 °C with the enzymes at 1 μM, and concentrations of compounds varying from 0.1 to 5 μM for ChoKα1 in 25 mM Tris, 150 mM NaCl, pH 7.5. Fluorescence emission spectra were recorded in the 300–400 nm range with an excitation wavelength of 280 nm, with slit width of 5 nm. Controls were determined by incubating the enzymes with equivalent amounts of DMSO. As indicated previously, data analysis was performed in Prism (GraphPad software) considering a model with a single binding site (Eq. 1), where F0 is the intrinsic fluorescence of the enzyme in the absence of quencher (Q), F1 is the observed fluorescence at a given quencher concentration, fa is the fractional degree of fluorescence, and Kd is the dissociation constant.

[17] = mean ± SEM, three independent experiments, read-out: IC50 ChoKα1 purified

T1 sequence (P35790 whole entry): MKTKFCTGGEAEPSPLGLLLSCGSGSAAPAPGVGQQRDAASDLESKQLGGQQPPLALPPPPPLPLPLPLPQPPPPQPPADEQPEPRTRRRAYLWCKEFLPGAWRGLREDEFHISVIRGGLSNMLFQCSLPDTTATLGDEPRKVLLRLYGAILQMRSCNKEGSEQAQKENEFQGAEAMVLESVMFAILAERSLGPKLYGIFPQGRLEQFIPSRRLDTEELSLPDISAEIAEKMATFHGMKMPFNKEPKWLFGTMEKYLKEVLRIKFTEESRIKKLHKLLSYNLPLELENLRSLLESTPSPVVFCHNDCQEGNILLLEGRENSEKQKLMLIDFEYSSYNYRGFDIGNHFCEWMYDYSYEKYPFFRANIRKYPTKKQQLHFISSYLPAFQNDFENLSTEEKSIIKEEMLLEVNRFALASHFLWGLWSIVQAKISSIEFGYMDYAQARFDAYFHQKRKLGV
Sequence of purified human ChoKα1 (P35790 whole entry): as above

SMILES | GI50 [2] [µM] | GI50 [3] [µM] | GI50 [4] [µM] | GI50 [5] [µM] | GI50 [6] [µM] | GI50 [7] [µM] | GI50 [8] [µM] | GI50 [9] [µM] | GI50 [10] [µM] | IC50 [11, 17] [µM] | Kd [16] [µM] | GI50 [1] [µM] | GI50 [12] [µM] | GI50 [13] [µM] | GI50 [14] [µM] | GI50 [15] [µM] | Antiproliferative activity in all cell lines (in words) [1] | IC50 [11] [µM]
CN(c1ccccc1)c1cc[n+](Cc2ccc(OCCOc3ccc(C[n+]4ccc(N(C)c5ccccc5)c5ccc(Cl)cc54)cc3)cc2)c2cc(Cl)ccc12 [Compound 10h, 1,1′-(((ethane-1,2-diylbis(oxy))bis(4,1-phenylene))bis(methylene))bis(7-chloro-4-(methyl(phenyl)amino)quinolinium) bromide] | 0.85 ± 0.32 | 0.026 ± 0.006 | 0.18 ± 0.08 | 0.35 ± 0.07 | 0.31 ± 0.07 | 0.92 ± 0.06 | 0.32 ± 0.04 | 0.32 ± 0.062 | 0.23 ± 0.04 | 2.79 ± 0.17 | – | – | 0.32 ± 0.03 | 1 ± 0.42 | 3.7 ± 0.43 | 16 ± 6.6 | – | –
CN(c1ccc(Cl)cc1)c1cc[n+](Cc2ccc(OCCOc3ccc(C[n+]4ccc(N(C)c5ccc(Cl)cc5)c5ccc(Cl)cc54)cc3)cc2)c2cc(Cl)ccc12 [Compound 10i, 1,1′-(((ethane-1,2-diylbis(oxy))bis(4,1-phenylene))bis(methylene))bis(7-chloro-4-((4-chlorophenyl)(methyl)amino)quinolinium) bromide] | 0.72 ± 0.09 | 0.5 ± 0.09 | 0.29 ± 0.1 | 1 ± 0.15 | 0.76 ± 0.26 | 0.87 ± 0.28 | 0.66 ± 0.07 | 1.5 ± 0.73 | 0.15 ± 0.05 | 16.2 ± 0.44 | – | – | – | – | – | – | – | –
CN(c1ccccc1)c1cc[n+](Cc2ccc(OCCOc3ccc(C[n+]4ccc(N(C)c5ccccc5)c5ccccc54)cc3)cc2)c2ccccc12 [Compound 10f, 1,1′-(((ethane-1,2-diylbis(oxy))bis(4,1-phenylene))bis(methylene))bis(4-(methyl(phenyl)amino)quinolinium) bromide] | 0.47 ± 0.12 | 0.24 ± 0.05 | 0.21 ± 0.06 | 0.12 ± 0.017 | 0.06 ± 0.002 | 0.063 ± 0.013 | 0.17 ± 0.065 | 0.15 ± 0.031 | 0.001 ± 0.001 | 6.85 ± 0.81 | 0.295 ± 0.127 | – | 0.1 ± 0.03 | 1.4 ± 0.6 | 9.8 ± 2.5 | – | – | –
[Br-].[Br-].c1cc(OCCOc2ccc(C[N+]34CCC(CC3)CC4)cc2)ccc1C[N+]12CCC(CC1)CC2 [Compound 10d, 1,1′-(((ethane-1,2-diylbis(oxy))bis(4,1-phenylene))bis(methylene))bis(quinuclidinium) bromide] | 94.3 ± 12.4 | 37.5 ± 4.2 | 61.3 ± 16.7 | > 100 | > 100 | 84.1 ± 7.4 | 91.4 ± 7.6 | 16.9 ± 2.5 | 74.3 ± 2.6 | – | – | > 10 | – | – | – | – | total loss of activity | 37.5 ± 4.45
OC1C[N+]2(Cc3ccc(OCCOc4ccc(C[N+]56CCC(CC5)C(O)C6)cc4)cc3)CCC1CC2.[Br-].[Br-] (centres unmarked) [Compound 10e, 1,1′-(((ethane-1,2-diylbis(oxy))bis(4,1-phenylene))bis(methylene))bis(3-hydroxyquinuclidinium) bromide] | 48 ± 1.1 | 66 ± 6.6 | > 100 | 94 ± 4.2 | > 100 | > 100 | 50.9 ± 11.7 | > 100 | 63.2 ± 3.9 | – | – | > 10 | – | – | – | – | total loss of activity | 9.51 ± 1.14
C[N+]1(C)CCOC(O)(c2ccc(-c3ccc(C4(O)C[N+](C)(C)CCO4)cc3)cc2)C1 (centres unmarked) [HC-3, reference compound] | – | – | – | – | – | – | – | – | – | – | 0.18 ± 0.03 | – | – | – | – | – | – | –
CN(C)c1cc[n+](Cc2ccc(CCCCc3ccc(C[n+]4ccc(N(C)c5ccc(Cl)cc5)cc4)cc3)cc2)cc1 [Compound 4, reference compound] | – | – | – | – | – | – | – | – | – | – | 0.11 ± 0.01 | – | – | – | – | – | – | –

Continued, in another order:

GI50 [2] [µM] | GI50 [3] [µM] | GI50 [4] [µM] | GI50 [5] [µM] | GI50 [6] [µM] | GI50 [7] [µM] | GI50 [8] [µM] | GI50 [9] [µM] | GI50 [10] [µM] | IC50 [11, 17] [µM] | Kd [16] [µM] | SMILES | GI50 [1] [µM] | GI50 [12] [µM] | GI50 [13] [µM] | GI50 [14] [µM] | GI50 [15] [µM] | Antiproliferative activity in all cell lines (in words) [1] | IC50 [11] [µM]
3.1 ± 0.7 | 2.7 ± 0.13 | 4.9 ± 0.7 | 4.3 ± 1.1 | 7.3 ± 0.5 | 2.1 ± 0.6 | 3.5 ± 0.72 | 5.6 ± 0.25 | 2.2 ± 0.27 | 1.63 ± 0.14 | – | CN(c1ccc(Cl)cc1)c1cc[n+](Cc2ccc(OCCOc3ccc(C[n+]4ccc(N(C)c5ccc(Cl)cc5)cc4)cc3)cc2)cc1 [Compound 10c, 1,1′-(((ethane-1,2-diylbis(oxy))bis(4,1-phenylene))bis(methylene))bis(4-((4-chlorophenyl)(methyl)amino)pyridinium) bromide] | 2.1 to 7.3 | – | – | – | – | – | –
4.5 ± 1.1 | 1.12 ± 0.22 | 2.3 ± 1.1 | 4.3 ± 0.42 | 0.068 ± 0.016 | 0.042 ± 0.005 | 0.17 ± 0.032 | 0.082 ± 0.041 | 0.09 ± 0.02 | 9.56 ± 1.45 | – | c1cc(OCCOc2ccc(C[n+]3ccc(N4CCCC4)cc3)cc2)ccc1C[n+]1ccc(N2CCCC2)cc1 [Compound 10b, 1,1′-(((ethane-1,2-diylbis(oxy))bis(4,1-phenylene))bis(methylene))bis(4-(pyrrolidin-1-yl)pyridinium) bromide] | 0.042 to 4.5 | 1.88 ± 0.71 | 34.8 ± 15.6 | 30.5 ± 9.6 | – | – | –
0.11 ± 0.028 | 0.036 ± 0.008 | 0.52 ± 0.02 | 0.27 ± 0.05 | 0.072 ± 0.013 | 0.18 ± 0.06 | 0.28 ± 0.09 | 0.26 ± 0.074 | 0.061 ± 0.003 | 2.02 ± 0.08 | 0.241 ± 0.03 | Clc1ccc2c(N3CCCCCC3)cc[n+](Cc3ccc(OCCOc4ccc(C[n+]5ccc(N6CCCCCC6)c6ccc(Cl)cc65)cc4)cc3)c2c1 [Compound 10k, 1,1′-(((ethane-1,2-diylbis(oxy))bis(4,1-phenylene))bis(methylene))bis(4-(azepan-1-yl)-7-chloroquinolinium) bromide] | – | 0.034 ± 0.007 | 2.1 ± 0.8 | 3.2 ± 0.86 | – | – | –
0.09 ± 0.04 | 0.16 ± 0.012 | 0.3 ± 0.068 | 0.15 ± 0.08 | 0.11 ± 0.026 | 0.42 ± 0.22 | 0.11 ± 0.047 | 0.17 ± 0.084 | 0.01 ± 0.005 | 1.66 ± 0.09 | – | c1ccc2c(c1)c(N1CCCCCC1)cc[n+]2Cc1ccc(OCCOc2ccc(C[n+]3ccc(N4CCCCCC4)c4ccccc43)cc2)cc1 [Compound 10j, 1,1′-(((ethane-1,2-diylbis(oxy))bis(4,1-phenylene))bis(methylene))bis(4-(azepan-1-yl)quinolinium) bromide] | – | 0.095 ± 0.021 | 2 ± 0.24 | 14.3 ± 1.2 | – | – | –
